The source of these data is patent US20250289806A1, “COMPOUNDS FOR PROLIFERATIVE DISORDERS” (UNIVERSITY OF MIAMI, priority 2022, published 2025).

One assay deals with T1, STK17A (Homo sapiens, UniProt Q9UEE5).
T1 construct: purchased Reaction Biology Corporation
T1 sequence (Q9UEE5 1-414): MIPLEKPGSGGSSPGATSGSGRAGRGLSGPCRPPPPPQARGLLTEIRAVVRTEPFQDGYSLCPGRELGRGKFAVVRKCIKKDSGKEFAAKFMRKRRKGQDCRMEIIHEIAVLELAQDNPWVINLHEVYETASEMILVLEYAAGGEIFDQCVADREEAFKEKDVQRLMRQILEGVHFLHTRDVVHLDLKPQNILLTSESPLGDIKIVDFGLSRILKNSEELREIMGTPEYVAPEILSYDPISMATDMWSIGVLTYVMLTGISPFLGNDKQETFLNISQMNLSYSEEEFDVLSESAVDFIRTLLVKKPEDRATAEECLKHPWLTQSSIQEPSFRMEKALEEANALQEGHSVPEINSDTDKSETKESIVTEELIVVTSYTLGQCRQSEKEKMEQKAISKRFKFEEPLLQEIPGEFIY
The experiment in a line: Enzymatic activity assay (Reaction Biology Corporation), STK17A. Format: biochemical. The protocol: (§1) All enzymatic assays and panel profiling studies are activity assays, which were carried out by Reaction Biology Corporation according to the company's protocols.

The target of another assay is T2, MYLK4 (Homo sapiens, UniProt Q86YV6).
T2 construct: purchased Reaction Biology Corporation
T2 sequence (Q86YV6 1-388): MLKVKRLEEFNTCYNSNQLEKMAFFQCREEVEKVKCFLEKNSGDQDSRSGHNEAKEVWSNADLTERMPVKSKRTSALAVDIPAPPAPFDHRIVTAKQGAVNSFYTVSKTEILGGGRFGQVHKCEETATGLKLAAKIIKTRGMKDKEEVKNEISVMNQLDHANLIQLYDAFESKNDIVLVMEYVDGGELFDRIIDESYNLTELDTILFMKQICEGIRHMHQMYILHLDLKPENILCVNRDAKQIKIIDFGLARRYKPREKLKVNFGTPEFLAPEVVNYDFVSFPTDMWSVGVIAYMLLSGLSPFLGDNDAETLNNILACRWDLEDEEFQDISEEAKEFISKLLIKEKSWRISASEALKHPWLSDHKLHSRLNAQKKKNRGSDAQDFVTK
The experiment in a line: Enzymatic activity assay (Reaction Biology Corporation), MYLK4. Format: biochemical. The protocol: as §1

A further assay has as its target T3, DDR1 (Homo sapiens, UniProt Q08345).
T3 construct: purchased Reaction Biology Corporation
The experiment in a line: Enzymatic activity assay (Reaction Biology Corporation), DDR1. Type of assay: biochemical. On the procedure:
as §1

The test system of another assay is K562. The experiment in a line: Cell viability assay, K562. Format: cell-based. The following applies: Homo sapiens; K562, chronic myeloid leukemia (Example 90 table).
In another assay the test system is RS4; 11. The experiment in a line: Cell viability assay, RS4; 11. The following applies: Homo sapiens, RS4-11; RS411, acute lymphoblastic leukemia (Example 90 table). Type of assay: cell-based.
Another assay has as its system MOLT4. The experiment in a line: Cell viability assay, MOLT4. As to conditions: Homo sapiens; MOLT-4, acute lymphoblastic leukemia (Example 90 table). Format: cell-based.
The next assay relates to Jurkat. The experiment in a line: Cell viability assay, Jurkat. Type of assay: cell-based. The following applies: Homo sapiens, acute lymphoblastic leukemia (Example 90 table).
The test system of the next assay is MOLM-13. The experiment in a line: Cell viability assay, MOLM-13. Format: cell-based. As to conditions: Homo sapiens; MOLM-13, acute myeloid leukemia (Example 90 table).
Another assay has as its system HEL. The experiment in a line: Cell viability assay, HEL. Format: cell-based. The following applies: Homo sapiens, acute myeloid leukemia (Example 90 table).
For the next assay, the system named is MV-4-11. The experiment in a line: Cell viability assay, MV-4-11. Format: cell-based. As to conditions: Homo sapiens, MV4-11; MV-4-11, acute myeloid leukemia (Example 90 table).
The next assay concerns SET-2. The experiment in a line: Cell viability assay, SET-2. The following applies: Homo sapiens; SET-2, acute myeloid leukemia (Example 90 table). Type of assay: cell-based.
For another assay, the system named is Kasumi-1. The experiment in a line: Cell viability assay, Kasumi-1. Format: cell-based. As to conditions: Homo sapiens; Kasumi-1, acute myeloid leukemia (Example 90 table).
The subject of another assay is SKNO-1. The experiment in a line: Cell viability assay, SKNO-1. Type of assay: cell-based. As to conditions: SKNO-1, acute myeloid leukemia (Example 90 table).
The subject of a further assay is THP-1. The experiment in a line: Cell viability assay, THP-1. The following applies: Homo sapiens; THP-1, acute myeloid leukemia (Example 90 table). Type of assay: cell-based.
The next assay has as its system TF1. The experiment in a line: Cell viability assay, TF1. The following applies: Homo sapiens, TF-1; TF1, acute myeloid leukemia (Example 90 table). Format: cell-based.
For another assay, the system named is OCI-AML3. The experiment in a line: Cell viability assay, OCI-AML3. Type of assay: cell-based. As to conditions: Homo sapiens, OCI-AML-3; OCI-AML3, acute myeloid leukemia (Example 90 table).
The subject of the next assay is HL-60. The experiment in a line: Cell viability assay, HL-60. Format: cell-based. As to conditions: Homo sapiens, HL-60; HL60, acute myeloid leukemia (Example 90 table).
A further assay deals with KMS12BM. The experiment in a line: Cell viability assay, KMS12BM. The following applies: Homo sapiens, KMS-12-BM, multiple myeloma (Example 90 table). Type of assay: cell-based.
Another assay concerns RPMI8226. The experiment in a line: Cell viability assay, RPMI8226. Type of assay: cell-based. The following applies: Homo sapiens, RPMI-8226; RPMI8226, multiple myeloma (Example 90 table).
The next assay has as its system OPM2. The experiment in a line: Cell viability assay, OPM2. Type of assay: cell-based. The following applies: Homo sapiens, OPM-2; OPM2, multiple myeloma (Example 90 table).
The test system of the next assay is LP1. The experiment in a line: Cell viability assay, LP1. Format: cell-based. As to conditions: Homo sapiens, LP-1; LP1, multiple myeloma (Example 90 table).
The next assay deals with U266B1. The experiment in a line: Cell viability assay, U266B1. The following applies: U266B1, multiple myeloma (Example 90 table). Type of assay: cell-based.
The test system of the next assay is SKMM2. The experiment in a line: Cell viability assay, SKMM2. Format: cell-based. As to conditions: Homo sapiens, SK-MM-2; SKMM2, multiple myeloma (Example 90 table).
The next assay deals with KMS12PE. The experiment in a line: Cell viability assay, KMS12PE. The following applies: Homo sapiens, KMS-12-PE, multiple myeloma (Example 90 table). Format: cell-based.
A further assay has as its system MM-M1. The experiment in a line: Cell viability assay, MM-M1. Format: cell-based. As to conditions: MM-M1, multiple myeloma (Example 90 table).
The next assay has as its system BJAB. The experiment in a line: Cell viability assay, BJAB. Type of assay: cell-based. The following applies: Homo sapiens, lymphoma (Example 90 table).
A further assay concerns MEC-1. The experiment in a line: Cell viability assay, MEC-1. Type of assay: cell-based. The following applies: Homo sapiens, MEC1; MEC-1, lymphoma (Example 90 table).
A further assay concerns RIVA. The experiment in a line: Cell viability assay, RIVA. Type of assay: cell-based. The following applies: lymphoma (Example 90 table).
Another assay relates to HEK293T. The experiment in a line: Cell viability assay, HEK293T (non-cancer cell line). Format: cell-based. The following applies: Homo sapiens, HEK-293T, non-hematological cell line (Example 90 table).
[1] abbreviates: enzymatic activity assay, read-out: IC50 STK17A.
Where [2] appears, read: enzymatic activity assay, read-out: IC50 MYLK4.

Like-named read-outs stand apart in the source and are kept apart here.

As a reminder, the IC50 is the concentration at which inhibition is half-maximal.

T3 sequence (Q08345 19-913): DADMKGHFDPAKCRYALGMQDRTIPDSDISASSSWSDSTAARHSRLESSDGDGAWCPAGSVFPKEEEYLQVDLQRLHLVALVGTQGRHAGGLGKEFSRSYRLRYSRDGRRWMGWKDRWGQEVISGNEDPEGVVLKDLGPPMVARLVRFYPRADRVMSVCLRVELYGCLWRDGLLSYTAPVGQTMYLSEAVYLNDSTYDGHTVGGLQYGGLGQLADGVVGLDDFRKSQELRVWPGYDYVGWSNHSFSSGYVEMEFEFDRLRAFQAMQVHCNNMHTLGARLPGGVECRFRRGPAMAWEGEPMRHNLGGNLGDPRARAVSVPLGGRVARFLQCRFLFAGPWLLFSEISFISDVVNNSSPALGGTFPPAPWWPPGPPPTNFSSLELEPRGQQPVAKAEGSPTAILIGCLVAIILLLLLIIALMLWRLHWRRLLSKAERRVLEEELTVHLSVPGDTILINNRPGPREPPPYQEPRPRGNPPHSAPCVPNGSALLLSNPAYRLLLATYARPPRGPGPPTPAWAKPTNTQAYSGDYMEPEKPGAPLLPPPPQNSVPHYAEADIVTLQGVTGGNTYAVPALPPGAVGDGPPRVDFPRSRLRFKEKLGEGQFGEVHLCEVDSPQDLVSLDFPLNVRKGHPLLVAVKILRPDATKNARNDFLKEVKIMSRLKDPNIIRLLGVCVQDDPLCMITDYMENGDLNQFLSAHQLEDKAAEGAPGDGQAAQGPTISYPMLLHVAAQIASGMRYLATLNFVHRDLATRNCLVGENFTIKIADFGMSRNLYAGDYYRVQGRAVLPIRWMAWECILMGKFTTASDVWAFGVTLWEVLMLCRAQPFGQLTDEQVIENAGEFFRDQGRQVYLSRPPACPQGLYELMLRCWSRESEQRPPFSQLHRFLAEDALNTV

Take `c1cc(-c2ccc3nc(N4CCCC4)ncc3c2)nc(Nc2cnn(C3CCNCC3)c2)n1` [Example 3]: the IC50 is under 50 nM on STK17A (setting [1]), under 50 nM at MYLK4 (setting [2]) and 50 to 100 nM at DDR1.
Turning to `c1cc(-c2ccc3nc(N4CCCC4)ncc3c2)nc(Nc2ccc(N3CCOCC3)cc2)n1` [Example 2], the IC50 at STK17A (setting [1]) and on MYLK4 was under 50 nM each time.
Turning to `CC(C)NC(=O)c1cccc(Nc2nccc(-c3ccc4nc(N5CCCC5)ncc4c3)n2)c1` [Example 6], at STK17A (setting [1]), the concentration for half-maximal inhibition (IC50) was over 100 nM.
With `c1cc(-c2ccc3nc(N4CCCC4)ncc3c2)nc(Nc2ccc(N3CCNCC3)nc2)n1` [Example 4], the IC50 on STK17A (setting [1]) and on MYLK4 was under 50 nM each time.
In the case of `c1cc(-c2ccc3nc(N4CCCC4)ncc3c2)nc(Nc2ccc(N3CCNCC3)cc2)n1` [Example 1, N-(4-(piperazin-1-yl)phenyl)-4-(2-(pyrrolidin-1-yl)quinazolin-6-yl)pyrimidin-2-amine], the IC50 on STK17A is 50 to 100 nM; on MYLK4, under 50 nM.
As for `c1cc(-c2ccc3nc(N4CCOCC4)ncc3c2)nc(Nc2cnn(C3CCNCC3)c2)n1` [Example 27], the IC50 was under 50 nM at STK17A (setting [1]); under 50 nM on MYLK4 (setting [2]); under 50 nM against DDR1; 8710 nM with K562; 10100 nM in the assay with RS4; 11; over 100000 nM in the assay on MOLT4. Besides, the IC50 with Jurkat was 6140 nM; in the assay on MOLM-13, 196 nM; in the assay on HEL, over 100000 nM; in the assay with MV-4-11, 321 nM; with SET-2, 648 nM; with Kasumi-1, 530 nM. In addition, the IC50 with SKNO-1 is 14800 nM; in the assay on THP-1, 1150 nM; in the assay on TF1 it was 15000 nM; with OCI-AML3, 886 nM; in the assay on HL-60, 5000 nM; in the assay on KMS12BM, 2810 nM. Besides, the IC50 came out at 2700 nM in the assay with RPMI8226; 6850 nM in the assay with OPM2; 1110 nM with LP1; 12600 nM with U266B1; 6620 nM in the assay on SKMM2; 2810 nM in the assay with KMS12PE. For the same compound, the IC50 is 8070 nM in the assay on MM-M1; 12100 nM with BJAB; 14200 nM in the assay on MEC-1; 9200 nM with RIVA; over 100000 nM in the assay on HEK293T.
In the case of `CC(C)NC(=O)c1ccc(Nc2nccc(-c3ccc4nc(N5CCOCC5)ncc4c3)n2)cc1` [Example 20], the IC50 on STK17A (setting [1]) was under 50 nM; against MYLK4 it was 50 to 100 nM; at DDR1, over 100 nM.
Turning to `OCCn1cc(Nc2nccc(-c3ccc4nc(N5CCOCC5)ncc4c3)n2)cn1` [Example 28], the IC50 at STK17A (setting [1]) and at MYLK4 (setting [2]) was under 50 nM each time.
`O=C(NC1CCNCC1)c1ccc(Nc2nccc(-c3ccc4nc(N5CCCC5)ncc4c3)n2)cc1` [Example 5]: the IC50 on STK17A (setting [1]) was over 100 nM.
`OCCN1CCC(n2cc(Nc3nccc(-c4ccc5nc(N6CCOCC6)ncc5c4)n3)cn2)CC1` [Example 29]: the IC50 on STK17A (setting [1]) and on DDR1 was under 50 nM throughout.
On to `c1cc(-c2ccc3nc(N4CCOCC4)ncc3c2)nc(Nc2ccc(N3CCNCC3)cc2)n1` [Example 26], for which the IC50 on STK17A (setting [1]) and on MYLK4 was under 50 nM in each case.
